From ChEMBL document CHEMBL4393657, “Tetrazole hybrids and their antifungal activities” (2019)
Values after ≈ are worked out from the molar mass of the structure shown.

What was measured:
Format in all cases: functional
Candida albicans [1] = assay: Antifungal activity against Candida albicans NCCS 3471 assessed as inhibition zone at 50 ug/ml incubated for 3 to 4 days by disk diffusion method; details: read-out: IZ
Aspergillus fumigatus [2] = assay: Antifungal activity against Aspergillus fumigatus NCIM 902 assessed as inhibition zone at 50 ug/ml incubated for 3 to 4 days by disk diffusion method; details: read-out: IZ
Candida albicans [3] = assay: Antifungal activity against Candida albicans ATCC 885653 assessed as inhibition zone at 100 ug/ml incubated for 48 to 72 hrs by agar-diffusion method; details: read-out: IZ
Aspergillus flavus = assay: Antifungal activity against Aspergillus flavus assessed as inhibition zone at 25 ug/ml by disk diffusion method; details: read-out: IZ
Aspergillus fumigatus [4] = assay: Antifungal activity against Aspergillus fumigatus assessed as inhibition zone at 25 ug/ml by disk diffusion method; details: read-out: IZ
Aspergillus niger [5] = assay: Antifungal activity against Aspergillus niger assessed as inhibition zone at 25 ug/ml by disk diffusion method; details: read-out: IZ
Candida albicans [6] = assay: Antifungal activity against Candida albicans assessed as inhibition zone at 25 ug/ml by disk diffusion method; details: read-out: IZ
Candida albicans [7] = assay: Antifungal activity against Candida albicans TA
Candida albicans [8] = assay: Antifungal activity against Candida albicans assessed as inhibition zone at 250 ug/ml; details: read-out: IZ
Aspergillus niger [9] = assay: Antifungal activity against Aspergillus niger assessed as inhibition zone at 250 ug/ml; details: read-out: IZ
Candida albicans [10] = assay: Antifungal activity against Candida albicans assessed as inhibition zone at 125 ug/ml by disk diffusion method; details: read-out: IZ
Candida albicans [11] = assay: Antifungal activity against Candida albicans assessed as reduction in fungal cell growth incubated for 48 hrs by broth microdilution susceptibility method
Candida albicans [12] = assay: In vivo antifungal activity against Candida albicans TA infected in CDF-1 mouse dosed orally assessed as survival of mouse; details: po
Aspergillus niger [13] = assay: Antifungal activity against Aspergillus niger assessed as reduction in fungal cell growth incubated for 48 hrs by broth microdilution susceptibility method

## c1ccc(-n2nnnc2-c2cccnc2)cc1
Candida albicans [1]
  zone of inhibition at 50 µg/mL: 10 to 19 mm
Aspergillus fumigatus [2]
  zone of inhibition at 50 µg/mL: 10 to 19 mm

## COc1ccc(OC)c(C(=O)CSc2nc3ccccc3c3nnnn23)c1
Candida albicans [3]
  zone of inhibition at 100 µg/mL: 22 mm

## c1ccc(OCc2cn(Cc3ccc(-c4ccccc4-c4nnn[nH]4)cc3)nn2)cc1
Aspergillus flavus
  zone of inhibition at 25 µg/mL: 11 to 18 mm
Aspergillus fumigatus [4]
  zone of inhibition at 25 µg/mL: 11 to 18 mm
Aspergillus niger [5]
  zone of inhibition at 25 µg/mL: 11 to 18 mm
Candida albicans [6]
  zone of inhibition at 25 µg/mL: 11 to 18 mm

## C[C@@H](n1ncnn1)[C@](O)(Cn1cncn1)c1ccc(F)cc1F
Candida albicans [7]
  MIC: 100 mg/L (≈ 311 µM)

## Clc1ccc(-c2nnnn2-c2nc3ccccc3s2)cc1
Candida albicans [8]
  zone of inhibition at 250 µg/mL: 13 to 23 mm
Aspergillus niger [9]
  zone of inhibition at 250 µg/mL: 13 to 23 mm

## Clc1ccc(/N=C/c2cc3cc(-c4nc5ccccc5[nH]4)ccc3n3nnnc23)cc1
Candida albicans [10]
  zone of inhibition at 125 µg/mL: 7 to 12 mm

## S=C1N=C(c2ccccc2)CC(c2cc3ccccc3n3nnnc23)N1 (configuration not stated)
Candida albicans [11]
  MIC: ≥ 100 mg/L

## C(=N\c1ccccc1)/c1cc2cc(-c3nc4ccccc4[nH]3)ccc2n2nnnc12
Candida albicans [10]
  zone of inhibition at 125 µg/mL: 7 to 12 mm

## COc1cc(-c2nnnn2-c2nc3ccccc3s2)cc(OC)c1OC
Candida albicans [8]
  zone of inhibition at 250 µg/mL: 13 to 23 mm
Aspergillus niger [9]
  zone of inhibition at 250 µg/mL: 13 to 23 mm

## O=[N+]([O-])c1cccc(-c2nnnn2-c2nc3ccccc3s2)c1
Candida albicans [8]
  zone of inhibition at 250 µg/mL: 13 to 23 mm
Aspergillus niger [9]
  zone of inhibition at 250 µg/mL: 13 to 23 mm

## COc1ccc(-n2nnnc2-c2cccnc2)cc1
Candida albicans [1]
  zone of inhibition at 50 µg/mL: 10 to 19 mm
Aspergillus fumigatus [2]
  zone of inhibition at 50 µg/mL: 10 to 19 mm

## C[C@@H](n1ncnn1)[C@](O)(Cn1cncn1)c1ccc(Cl)cc1
Candida albicans [7]
  MIC: 100 mg/L (≈ 313 µM)

## Oc1ccc(-c2nnnn2-c2nc3ccccc3s2)cc1
Candida albicans [8]
  zone of inhibition at 250 µg/mL: 13 to 23 mm
Aspergillus niger [9]
  zone of inhibition at 250 µg/mL: 13 to 23 mm

## Cc1ccc(/N=C/c2cc3cc(-c4nc5ccccc5[nH]4)ccc3n3nnnc23)cc1
Candida albicans [10]
  zone of inhibition at 125 µg/mL: 7 to 12 mm

## Cc1cccc(OCc2cn(Cc3ccc(-c4ccccc4-c4nnn[nH]4)cc3)nn2)c1
Aspergillus flavus
  zone of inhibition at 25 µg/mL: 11 to 18 mm
Aspergillus fumigatus [4]
  zone of inhibition at 25 µg/mL: 11 to 18 mm
Aspergillus niger [5]
  zone of inhibition at 25 µg/mL: 11 to 18 mm
Candida albicans [6]
  zone of inhibition at 25 µg/mL: 11 to 18 mm

## Clc1ccccc1-n1nnnc1-c1cccnc1
Candida albicans [1]
  zone of inhibition at 50 µg/mL: 17 mm
Aspergillus fumigatus [2]
  zone of inhibition at 50 µg/mL: 15 mm

## C[C@@H](n1nnn(-c2ccc(OCC(F)(F)C(F)F)cc2)c1=O)[C@](O)(Cn1cncn1)c1ccccc1
Candida albicans [12]
  ED50: 0.71 to 2 mg/kg

## O=C(O)c1cccc(/N=C/c2cc3cc(-c4nc5ccccc5[nH]4)ccc3n3nnnc23)c1
Candida albicans [10]
  zone of inhibition at 125 µg/mL: 7 to 12 mm

## C[C@@H](n1cnnn1)[C@](O)(Cn1cncn1)c1ccc(Cl)cc1
Candida albicans [7]
  MIC: 12.5 to 100 mg/L (≈ 39.1 to 313 µM)
Candida albicans [12]
  ED50: 0.18 to 1.54 mg/kg

## Oc1cccc(-c2nnnn2-c2nc3ccccc3s2)c1
Candida albicans [8]
  zone of inhibition at 250 µg/mL: 13 to 23 mm
Aspergillus niger [9]
  zone of inhibition at 250 µg/mL: 13 to 23 mm

## C[C@@H](n1nnn(-c2ccc(OCC(F)(F)F)cc2)c1=O)[C@](O)(Cn1cncn1)c1ccccc1
Candida albicans [12]
  ED50: 0.71 to 2 mg/kg

## C[C@@H](n1ncnn1)[C@](O)(Cn1cncn1)c1ccc(F)cc1
Candida albicans [7]
  MIC: 100 mg/L (≈ 330 µM)

## Oc1ccc(-c2nnnn2-c2nc3ccccc3s2)cc1O
Candida albicans [8]
  zone of inhibition at 250 µg/mL: 13 to 23 mm
Aspergillus niger [9]
  zone of inhibition at 250 µg/mL: 13 to 23 mm

## C[C@@H](n1cnnn1)[C@](O)(Cn1cncn1)c1ccc(F)cc1
Candida albicans [7]
  MIC: 12.5 to 100 mg/L (≈ 41.2 to 330 µM)
Candida albicans [12]
  ED50: 0.18 to 1.54 mg/kg

## O=[N+]([O-])c1ccc(-n2nnnc2-c2cccnc2)cc1
Candida albicans [1]
  zone of inhibition at 50 µg/mL: 10 to 19 mm
Aspergillus fumigatus [2]
  zone of inhibition at 50 µg/mL: 10 to 19 mm

## Oc1ccc(/N=C/c2cc3cc(-c4nc5ccccc5[nH]4)ccc3n3nnnc23)cc1
Candida albicans [10]
  zone of inhibition at 125 µg/mL: 7 to 12 mm

## COc1ccc(-c2nn[se]c2-n2nnc(-c3ccccc3Cl)n2)cc1
Candida albicans [11]
  MIC: 100 to 400 mg/L (≈ 239 to 958 µM)
Aspergillus niger [13]
  MIC: 100 to 400 mg/L (≈ 239 to 958 µM)

## COc1ccc(-c2nn[se]c2-n2nnc(-c3ccccc3)n2)cc1
Candida albicans [11]
  MIC: 100 to 400 mg/L (≈ 261 to 1040 µM)
Aspergillus niger [13]
  MIC: 100 to 400 mg/L (≈ 261 to 1040 µM)

## Cc1ccc(N2C(=O)/C(=C\c3ccc(N(C)C)cc3)C(=O)N(/N=C/c3cc4ccccc4n4nnnc34)C2=S)cc1
Candida albicans [11]
  MIC: ≥ 100 mg/L

## COc1ccc(C(=O)CSc2nc3ccccc3c3nnnn23)cc1
Candida albicans [3]
  zone of inhibition at 100 µg/mL: 6 to 22 mm

## Brc1ccc(-n2nnnc2-c2cccnc2)cc1
Candida albicans [1]
  zone of inhibition at 50 µg/mL: 19 mm
Aspergillus fumigatus [2]
  zone of inhibition at 50 µg/mL: 17 mm

## C[C@@H](n1cnnn1)[C@](O)(Cn1cncn1)c1ccccc1F
Candida albicans [7]
  MIC: 12.5 to 100 mg/L (≈ 41.2 to 330 µM)
Candida albicans [12]
  ED50: 0.18 to 1.54 mg/kg

## O=[N+]([O-])c1ccccc1-n1nnnc1-c1cccnc1
Candida albicans [1]
  zone of inhibition at 50 µg/mL: 10 to 19 mm
Aspergillus fumigatus [2]
  zone of inhibition at 50 µg/mL: 10 to 19 mm

## COc1ccc(-c2nn[se]c2-n2nnc(-c3ccc(C)cc3)n2)cc1
Candida albicans [11]
  MIC: 100 to 400 mg/L (≈ 252 to 1010 µM)
Aspergillus niger [13]
  MIC: 100 to 400 mg/L (≈ 252 to 1010 µM)

## Cc1ccc(-c2nnnn2-c2nc3ccccc3s2)cc1
Candida albicans [8]
  zone of inhibition at 250 µg/mL: 13 to 23 mm
Aspergillus niger [9]
  zone of inhibition at 250 µg/mL: 13 to 23 mm

## O=C1CC(=O)N(c2ccc(Cl)cc2)C(=S)N1/N=C/c1cc2ccccc2n2nnnc12
Candida albicans [11]
  MIC: ≥ 100 mg/L

## CN(C)c1ccc(/C=C2/C(=O)N(/N=C/c3cc4ccccc4n4nnnc34)C(=S)N(c3ccc(Cl)cc3)C2=O)cc1
Candida albicans [11]
  MIC: ≥ 100 mg/L
